The values that follow come from patent publication US6156700A, “3-(1,2-Benzisothiazol- and isoxazol-5-yl)-2,4(1H,3H)-pyrimidinedione or thione and 3-(1,2-benzisothiazol- and isoxazol-5-yl)-4(3H)-pyrimidinone or thione herbicidal agents” (American Cyanmid Company, priority 1998, dated 2000).

Assay [1] has as its system Velvetleaf, Abutilon theophrasti. Nature of the assay: Postemergence herbicidal evaluation, ABUTH. Particulars: 0.0630 kg/ha. The class given is in vivo, Medic. Put shortly: (§1)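 Seedlings grown about two weeks were sprayed with compound in 50/50 acetone/water containing 0.5% TWEEN 20 at rates equivalent to about 0.0157–0.500 kg/ha, nozzle at 40 psi. Injury was rated visually 0–9 versus control four to five weeks after treatment; replicate tests averaged.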

For assay [2], the system named is Ragweed, Common, Ambrosia artemisifolia. The assay is described as follows: Postemergence herbicidal evaluation, AMBEL. It counts as in vivo, L. Particulars: 0.0630 kg/ha. The essentials:
as §1

The subject of assay [3] is Lambsquarters, Common, Chenopodium album. Nature of the assay: Postemergence herbicidal evaluation, CHEAL. Particulars: 0.0630 kg/ha. It counts as in vivo, L. The essentials:
as §1

Assay [4] relates to Galium, Galium aparine. Nature of the assay: Postemergence herbicidal evaluation, GALAP. It counts as in vivo. Particulars: 0.0630 kg/ha. Put shortly:
as §1

Assay [5] has as its system Morningglory, Ivyleaf, Ipomoea hederacea. Nature of the assay: Postemergence herbicidal evaluation, IPOHE. The class given is in vivo, (L.) Jacq. Particulars: 0.0630 kg/ha. Put shortly:
as §1

Assay [6] deals with Barnyardgrass, Echinochloa crus-galli. Nature of the assay: Postemergence herbicidal evaluation, ECHCG. It counts as in vivo, (L.) Beau. Particulars: 0.0630 kg/ha. The essentials:
as §1

The test system of assay [7] is Foxtail, Green, Setaria viridis. Nature of the assay: Postemergence herbicidal evaluation, SETVI. The class given is in vivo, (L.) Beau. Particulars: 0.0630 kg/ha. Put shortly: as §1
The subject of assay [8] is Soybean, Williams, Glycine max. Nature of the assay: Postemergence herbicidal evaluation, GLXMAW. The class given is in vivo, (L.) Merr. cv Williams. Particulars: 0.0630 kg/ha. The essentials:
as §1

The subject of assay [9] is Rice, Tebonnet, Oryza sativa. Nature of the assay: Postemergence herbicidal evaluation, ORYSAT. It counts as in vivo, (L.) Tebonnet. Particulars: 0.0630 kg/ha. Put shortly:
as §1

The test system of assay [10] is Wheat, Winter, cv Riband, Triticum aestivum. Nature of the assay: Postemergence herbicidal evaluation, TRZAWR. The class given is in vivo. Particulars: 0.0630 kg/ha. Put shortly:
as §1

For assay [11], the system named is Corn, Field, Zea mays. Nature of the assay: Postemergence herbicidal evaluation, ZEAMX. It counts as in vivo, L. Particulars: 0.0630 kg/ha. Put shortly:
as §1

The test system of assay [12] is Velvetleaf, Abutilon theophrasti. Nature of the assay: Preemergence herbicidal evaluation, ABUTH. The class given is in vivo, Medic. Particulars: 0.2500 kg/ha. The source says: (§2) Results of herbicide evaluation are expressed on a rating scale (0-9). The scale is based upon a visual observation of plant stand, vigor, malformation, size, chlorosis and overall plant appearance as compared with a control.
(§3) The preemergence herbicidal activity of the test compounds of the present invention is exemplified by the following tests in which the seeds of a variety of monocotyledonous and dicotyledonous plants are separately mixed with potting soil and planted on top of approximately one inch of soil in separate pint cups. After planting, the cups are sprayed with the selected aqueous acetone solution containing test compound in sufficient quantity to provide the equivalent of about 0.0156 to 0.500 kg per hectare of test compound per cup. The treated cups are then placed on greenhouse benches, watered and cared for in accordance with conventional greenhouse procedures. From four to five weeks after treatment, the tests are terminated and each cup is examined and rated according to the rating system provided in Example 185.
(§4) The compounds evaluated are reported by compound number given in Example 185.

Assay [13] concerns Ragweed, Common, Ambrosia artemisifolia. Nature of the assay: Preemergence herbicidal evaluation, AMBEL. Particulars: 0.2500 kg/ha. The class given is in vivo, L.
From the text: as §2, §3, §4

The test system of assay [14] is Sicklepod, Cassia obtusifolia. The assay is described as follows: Preemergence herbicidal evaluation, CASOB. It counts as in vivo, L. Particulars: 0.2500 kg/ha.
From the text: as §2, §3, §4

Assay [15] has as its system Lambsquarters, Common, Chenopodium album. Nature of the assay: Preemergence herbicidal evaluation, CHEAL. Particulars: 0.2500 kg/ha. The class given is in vivo, L.
From the text: as §2, §3, §4

Assay [16] concerns Galium, Galium aparine. The assay is described as follows: Preemergence herbicidal evaluation, GALAP. It counts as in vivo. Particulars: 0.2500 kg/ha.
From the text: as §2, §3, §4

Assay [17] concerns Morningglory, Ivyleaf, Ipomoea hederacea. Nature of the assay: Preemergence herbicidal evaluation, IPOHE. The class given is in vivo, (L.) Jacq. Particulars: 0.2500 kg/ha.
From the text: as §2, §3, §4

Assay [18] concerns Barnyardgrass, Echinochloa crus-galli. Nature of the assay: Preemergence herbicidal evaluation, ECHCG. It counts as in vivo, (L.) Beau. Particulars: 0.2500 kg/ha.
From the text: as §2, §3, §4

Assay [19] deals with Foxtail, Green, Setaria viridis. Nature of the assay: Preemergence herbicidal evaluation, SETVI. It counts as in vivo, (L.) Beau. Particulars: 0.2500 kg/ha.
From the text: as §2, §3, §4

In assay [20] the test system is Soybean, Williams, Glycine max. Nature of the assay: Preemergence herbicidal evaluation, GLXMAW. Particulars: 0.2500 kg/ha. The class given is in vivo, (L.) Merr. cv Williams.
From the text: as §2, §3, §4

Assay [21] deals with Rice, Tebonnet, Oryza sativa. Nature of the assay: Preemergence herbicidal evaluation, ORYSAT. It counts as in vivo, (L.) Tebonnet. Particulars: 0.2500 kg/ha.
From the text: as §2, §3, §4

Assay [22] concerns Wheat, Winter, cv Riband, Triticum aestivum. The assay is described as follows: Preemergence herbicidal evaluation, TRZAWR. The class given is in vivo. Particulars: 0.2500 kg/ha.
From the text: as §2, §3, §4

Assay [23] relates to Corn, Field, Zea mays. Nature of the assay: Preemergence herbicidal evaluation, ZEAMX. The class given is in vivo, L. Particulars: 0.2500 kg/ha.
From the text: as §2, §3, §4

Assay [24] deals with Sicklepod, Cassia obtusifolia. Nature of the assay: Postemergence herbicidal evaluation, CASOB. The class given is in vivo, L. Particulars: 0.0630 kg/ha. The essentials: as §1

For `COc1c(C)cc(C)cc1-c1nsc2ccc(-n3c(=O)cc(C(F)(F)F)n(C)c3=O)cc12` [Compound 18, 3-[3-(2-Methoxy-3,5-xylyl)-1,2-benzisothiazol-5-yl]-1-methyl-6-(trifluoromethyl)-2,4(1H,3H)-pyrimidinedione], the “herbicide rating (0-9)” value in assay [1] came to 9.0; in assay [2], 6.0; in assay [3] it was 9.0; in [4], 5.0; in assay [5], 9.0; in assay [6], 4.0. The “herbicide rating (0-9)” value was determined as 5.0 in assay [7]; 4.0 in assay [8]; 2.0 in [9]; 2.5 in assay [10]; 5.0 in [11]; 9.0 in assay [12]. Further, the “herbicide rating (0-9)” value in assay [13] came out at 9.0; in assay [14], 4.0; in assay [15], 9.0; in [16], 1.0; in [17] it was 4.0; in [18] it was 5.0. The “herbicide rating (0-9)” value is on record as 9.0 in [19]; 2.0 in assay [20]; 0.0 in assay [21]; 0.0 in assay [22]; 3.0 in [23].

As for `Cc1noc2cc(F)c(-n3c(=O)cc(C(F)(F)F)n(C)c3=O)cc12` [Compound 23, 3-(6-Fluoro-3-methyl-1,2-benzisoxazol-5-yl)-1-methyl-6-(trifluoromethyl)-2,4(1H,3H)-pyrimidinedione], the “herbicide rating (0-9)” value in assay [12], in assay [13], in assay [14], in assay [15], in [16] and in [17] was 9.0 in each case. Further, the “herbicide rating (0-9)” value in assay [18], in assay [19], in assay [20], in [21], in assay [22] and in assay [23] was 9.0 each time.

As for `COc1ccc(C)cc1-c1nsc2ccc(-n3c(=O)cc(C)n(C)c3=O)cc12` [Compound 24, 3-[3-(6-Methoxy-m-tolyl)-1,2-benzisothiazol-5-yl]-1,6-dimethyl-2,4(1H,3H)-pyrimidinedione], the “herbicide rating (0-9)” value in [1] amounted to 7.0; in assay [2], 3.0; in assay [3], 0.0; in assay [4], 0.0; in [5] it was 4.0; in [6], 0.0. Moreover, the “herbicide rating (0-9)” value stood at 0.0 in [7]; 3.0 in assay [8]; 0.5 in assay [9]; 3.0 in assay [10]; 5.0 in assay [11]; 9.0 in assay [12]. In addition, the “herbicide rating (0-9)” value in [13] is reported as 5.0; in assay [14], 4.0; in assay [15] it was 9.0; in [16], 3.0; in assay [17] it was 9.0; in assay [18], 3.0. Moreover, the “herbicide rating (0-9)” value was 5.0 in [19]; 1.0 in assay [20]; 0.0 in assay [21]; 0.0 in [22]; 2.0 in assay [23].

Consider `Cn1c(C(F)(F)F)cc(=O)n(-c2ccc3onc(-c4ccccc4)c3c2)c1=O` [Compound 25, 1-Methyl-3-(3-phenyl-1,2-benzisoxazol-5-yl)-6-(trifluoromethyl)-2,4 (1H,3H)-pyrimidinedione], for which the “herbicide rating (0-9)” value was determined as 9.0 in [1]; 5.0 in [2]; 9.0 in assay [3]; 5.0 in [4]; 8.0 in assay [5]; 2.0 in assay [6]. Also, the “herbicide rating (0-9)” value in assay [7] came to 7.0; in [8], 7.0; in assay [9] it was 3.5; in assay [10], 3.5; in assay [11] it was 4.5; in assay [12] it was 9.0. Further, the “herbicide rating (0-9)” value came out at 9.0 in assay [13]; 9.0 in [14]; 9.0 in assay [15]; 8.0 in assay [16]; 9.0 in [17]; 9.0 in [18]. Besides, the “herbicide rating (0-9)” value in [19] amounted to 9.0; in assay [20] it was 9.0; in assay [21] it was 7.0; in [22], 7.0; in assay [23], 7.0.

On to `COC(=O)COc1c(C)cc(C)cc1-c1nsc2ccc(-n3c(=O)cc(C(F)(F)F)n(C)c3=O)cc12` [Compound 26, Methyl {{6-{5-[3,6-dihydro-3-methyl-2,6-dioxo-4-(trifluoromethyl)-1(2H)-pyrimidinyl]-1,2-benzisothiazol-3-yl}-2,4-xylyl}oxy}acetate], for which the “herbicide rating (0-9)” value was 9.0 in [1]; 9.0 in assay [2]; 6.0 in [24]; 9.0 in assay [3]; 9.0 in assay [4]; 9.0 in assay [5]. For the same compound, the “herbicide rating (0-9)” value in assay [6] was 9.0; in assay [7] it was 9.0; in [8], 7.5; in assay [9] it was 2.0; in assay [10] it was 8.0; in [11], 7.0. Also, the “herbicide rating (0-9)” value in [12] is given as 9.0; in assay [13], 9.0; in assay [14], 9.0; in [15], 9.0; in assay [16], 4.0; in assay [17], 7.0. The “herbicide rating (0-9)” value in [18] came out at 7.0; in assay [19], 9.0; in [20], 6.0; in [21], 5.0; in assay [22], 5.0; in assay [23], 7.0.
